The values that follow come from patent US12371454B2, “Cyclic peptide compound having Kras inhibitory action” (priority 2019, dated 2025).

In general, IC50 refers to the concentration that inhibits the measured activity by half.

Starred links: 1 amine or outer side, 2 acyl side, 3 side chain; linkers in the order of their positions; H or OH if unused. Positions of bridges follow the written chain, without caps; N, C: chain ends. Non-standard residues stand in square brackets, D forms with d. Residues, ends and D or L forms follow the SMILES beside them. *: point of attachment. hPhe(3-Cl-4-CF3) = N[C@@H](CCc1ccc(C(F)(F)F)c(Cl)c1)C(=O)O; NEtAsp = CCN([C@@H](CC(=O)[*:3])C(=O)[*:2])[*:1]; NMePhe(4-Me) = CN[C@@H](Cc1ccc(C)cc1)C(=O)O; X6 = CCN([C@@H](CC1CCCCC1)C(=O)[*:2])[*:1]; NMeGly(cPent) = CN[C@H](C(=O)O)C1CCCC1; Phe(3-I) = N[C@@H](Cc1cccc(I)c1)C(=O)O; NMeAla(cPr) = CN[C@@H](CC1CC1)C(=O)O; Phe(2-Me) = Cc1ccccc1C[C@H](N)C(=O)O; NMeGly(cBu) = CN[C@H](C(=O)O)C1CCC1; NMeCha = CN[C@@H](CC1CCCCC1)C(=O)O; NMeChg = CN[C@H](C(=O)O)C1CCCCC1; NMeD = CN[C@@H](CC(=O)O)C(=O)O; NMeL = CN[C@@H](CC(C)C)C(=O)O; Chg = N[C@H](C(=O)O)C1CCCCC1; NMePra = C#CC[C@H](NC)C(=O)O; NMeNva = CCC[C@H](NC)C(=O)O; NMeV = CN[C@H](C(=O)O)C(C)C; Ac6c = NC1(C(=O)O)CCCCC1; NMeA = CN[C@@H](C)C(=O)O; NMeAib = CNC(C)(C)C(=O)O; Piperidide = C1CCN(*)CC1; Ac5c = NC1(C(=O)O)CCCC1; Aze = O=C(O)[C@@H]1CCN1; Sar = CNCC(=O)O A value given as a limit tells only on which side of the number the result lay.

The test system of assay [1] is Human pancreatic cancer cell line AsPC-1. The assay can be described thus: Measurement of AsPC-1 cell growth inhibition (AsPC-1 CGI). Format: cell-based. The following applies: 96 h. In outline: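 AsPC-1 cells in 15% FBS RPMI-1640 were exposed to test compound for 96 hours at 37° C, with CellTiter-Glo as endpoint.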
Assay [2] deals with T1, Kras and SOS1 (biotin-tagged human Kras loaded with GDP, His-tagged human SOS1) (Homo sapiens, UniProt P01116, G12D).
T1 construct: made in house; host or cells: E. coli (stated for Kras only)
T1 sequence (P01116 1-188 isoform P01116-2 G12D): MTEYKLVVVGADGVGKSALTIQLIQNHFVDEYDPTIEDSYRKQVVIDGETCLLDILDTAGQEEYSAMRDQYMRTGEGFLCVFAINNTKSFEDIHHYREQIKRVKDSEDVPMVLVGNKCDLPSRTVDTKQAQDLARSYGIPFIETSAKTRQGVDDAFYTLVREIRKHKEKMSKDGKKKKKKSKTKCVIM
Description: Protein-protein interaction inhibition between Kras and SOS1 (KrasGl2D-SOS PPI) using AlphaScreen. The following applies: AlphaScreen; biotin-tagged human Kras loaded with GDP, His-tagged human SOS1; read-out: KRAS G12D-SOS PPI IC50. It is filed as binding. In short, it runs like this:
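AlphaScreen format: Ni donor beads capture His-SOS1, streptavidin acceptor beads capture biotinylated Kras (E. coli-expressed, GDP-loaded post-purification). Excite 680 nm, read 520-620 nm.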
(In general: In Alpha technology, singlet oxygen from a donor bead excites a nearby acceptor bead.)

As to `CC[C@H](C)[C@@H]1NC(=O)[C@H](CC(C)C)N(C)C(=O)C[C@@H](C(=O)N2CCCCC2)N(C)C(=O)[C@H](C(C)C)N(C)C(=O)C2(CCCC2)NC(=O)[C@@H]2CCCN2C(=O)[C@H](CCc2ccc(C(F)(F)F)c(Cl)c2)NC(=O)CN(C)C(=O)[C@H](C2CCCCC2)N(C)C(=O)[C@@H]2CCN2C(=O)[C@H](C)N(C)C1=O` [Compound 526] ([NMeL]I[NMeA][Aze][NMeChg][Sar][hPhe(3-Cl-4-CF3)]P[Ac5c][NMeV][NMeD]-Piperidide; lactam N-11), the results for the IC50 in assay [1] and in assay [2] were 100 to 500 nM and 6.6 nM, respectively.

For the molecule `CC[C@H](C)[C@@H]1NC(=O)[C@H](C)N(C)C(=O)C[C@@H](C(=O)N2CCCCC2)N(CC)C(=O)[C@H](C2CCCC2)N(C)C(=O)C2(CCCC2)NC(=O)[C@@H]2CCCN2C(=O)[C@H](CCc2ccc(C(F)(F)F)c(Cl)c2)NC(=O)CN(C)C(=O)[C@H](CC2CCCCC2)N(C)C(=O)CN(C)C(=O)CN(C)C1=O` [Compound 532] ([NMeA]I[Sar][Sar][NMeCha][Sar][hPhe(3-Cl-4-CF3)]P[Ac5c][NMeGly(cPent)][NEtAsp]-Piperidide; lactam N-11), the concentration for half-maximal inhibition (IC50) in assay [1] is 50 to 100 nM; in assay [2] it was 0.48 nM.

As for `CO[C@H](C)[C@@H]1NC(=O)[C@H](CC(C)C)N(C)C(=O)C[C@@H](C(=O)N2CCCCC2)N(C)C(=O)[C@H](C2CCCCC2)N(C)C(=O)C2(CCCC2)NC(=O)[C@@H]2CCCN2C(=O)[C@H](CCc2ccc(C(F)(F)F)c(Cl)c2)NC(=O)CN(C)C(=O)[C@H](CC2CCCCC2)N(C)C(=O)CN(C)C(=O)CN(C)C1=O` [Compound 535] ([NMeL]T(Me)[Sar][Sar][NMeCha][Sar][hPhe(3-Cl-4-CF3)]P[Ac5c][NMeChg][NMeD]-Piperidide; lactam N-11), the IC50 in assay [1] is 50 to 100 nM; in assay [2], 0.65 nM.

Consider `CC[C@H](C)[C@@H]1NC(=O)[C@H](CC(C)C)N(C)C(=O)C[C@@H](C(=O)N2CCCCC2)N(C)C(=O)[C@H](C2CCCCC2)N(C)C(=O)C2(CCCC2)NC(=O)[C@@H]2CCCN2C(=O)[C@H](CCc2ccc(C(F)(F)F)c(Cl)c2)NC(=O)CN(C)C(=O)[C@H](CC2CCCCC2)N(CC)C(=O)CN(C)C(=O)CN(C)C1=O` [Compound 543] ([NMeL]I[Sar][Sar][X6][Sar][hPhe(3-Cl-4-CF3)]P[Ac5c][NMeChg][NMeD]-Piperidide; lactam N-11), for which the values for the 50% inhibitory concentration (IC50) in assay [1] and in assay [2] were 50 to 100 nM and 0.56 nM, respectively.

As to `CCC[C@H]1C(=O)N(C)[C@H](C(=O)N2CCCCC2)CC(=O)N(C)[C@@H](CC(C)C)C(=O)N[C@@H]([C@@H](C)CC)C(=O)N(C)CC(=O)N(C)CC(=O)N(C)[C@@H](CC2CCCCC2)C(=O)N(C)CC(=O)N[C@@H](CCc2ccc(C(F)(F)F)c(Cl)c2)C(=O)N2CCC[C@H]2C(=O)NC2(CCCC2)C(=O)N1C` [Compound 548] ([NMeL]I[Sar][Sar][NMeCha][Sar][hPhe(3-Cl-4-CF3)]P[Ac5c][NMeNva][NMeD]-Piperidide; lactam N-11), the IC50 in assay [1] is 100 to 500 nM; in assay [2], 1.6 nM.

Consider `C#CC[C@H]1C(=O)N[C@@H]([C@@H](C)CC)C(=O)N(C)CC(=O)N(C)CC(=O)N(C)[C@@H](CC2CCCCC2)C(=O)N(C)CC(=O)N[C@@H](CCc2ccc(C(F)(F)F)c(Cl)c2)C(=O)N2CCC[C@H]2C(=O)NC2(CCCC2)C(=O)N(C)[C@@H](C2CCCCC2)C(=O)N(C)[C@H](C(=O)N2CCCCC2)CC(=O)N1C` [Compound 551] ([NMePra]I[Sar][Sar][NMeCha][Sar][hPhe(3-Cl-4-CF3)]P[Ac5c][NMeChg][NMeD]-Piperidide; lactam N-11), for which the figures for the 50% inhibitory concentration (IC50) in assay [1] and in assay [2] were 50 to 100 nM and 0.52 nM, respectively.

On to `CC(C)C[C@H]1C(=O)N[C@@H](C2CCCCC2)C(=O)N(C)CC(=O)N(C)CC(=O)N(C)[C@@H](CC2CCCCC2)C(=O)N(C)CC(=O)N[C@@H](CCc2ccc(C(F)(F)F)c(Cl)c2)C(=O)N2CCC[C@H]2C(=O)NC2(CCCC2)C(=O)N(C)[C@@H](C2CCCCC2)C(=O)N(C)[C@H](C(=O)N2CCCCC2)CC(=O)N1C` [Compound 552] ([NMeL][Chg][Sar][Sar][NMeCha][Sar][hPhe(3-Cl-4-CF3)]P[Ac5c][NMeChg][NMeD]-Piperidide; lactam N-11), for which the results for the IC50 in assay [1] and in assay [2] were 100 to 500 nM and 0.63 nM, respectively.

Turning to `CC[C@H](C)[C@@H]1NC(=O)[C@H](CC2CC2)N(C)C(=O)C[C@@H](C(=O)N2CCCCC2)N(C)C(=O)[C@H](C(C)C)N(C)C(=O)C2(CCCC2)NC(=O)[C@@H]2CCCN2C(=O)[C@H](CCc2ccc(C(F)(F)F)c(Cl)c2)NC(=O)CN(C)C(=O)[C@H](CC2CCCCC2)N(C)C(=O)CN(C)C(=O)CN(C)C1=O` [Compound 561] ([NMeAla(cPr)]I[Sar][Sar][NMeCha][Sar][hPhe(3-Cl-4-CF3)]P[Ac5c][NMeV][NMeD]-Piperidide; lactam N-11), the half-maximal inhibitory concentration (IC50) in assay [1] is 100 to 500 nM; in assay [2], 3.4 nM.

In the case of `CC[C@H](C)[C@@H]1NC(=O)[C@H](C2CCC2)N(C)C(=O)C[C@@H](C(=O)N2CCCCC2)N(C)C(=O)[C@H](C2CCCCC2)N(C)C(=O)C2(CCCC2)NC(=O)[C@@H]2CCCN2C(=O)[C@H](CCc2ccc(C(F)(F)F)c(Cl)c2)NC(=O)CN(C)C(=O)[C@H](CC2CCCCC2)N(C)C(=O)CN(C)C(=O)CN(C)C1=O` [Compound 562] ([NMeGly(cBu)]I[Sar][Sar][NMeCha][Sar][hPhe(3-Cl-4-CF3)]P[Ac5c][NMeChg][NMeD]-Piperidide; lactam N-11), the values for the half-inhibitory concentration (IC50) in assay [1] and in assay [2] were 50 to 100 nM and 0.56 nM, respectively.

For the molecule `CC[C@H](C)[C@@H]1NC(=O)[C@H](CC(C)C)N(C)C(=O)C[C@@H](C(=O)N(C)C)N(C)C(=O)[C@H](C2CCCC2)N(C)C(=O)C2(CCCC2)NC(=O)[C@H](C)NC(=O)[C@H](CCc2ccc(C(F)(F)F)c(Cl)c2)NC(=O)CN(C)C(=O)[C@H](CC2CCCCC2)N(C)C(=O)[C@@H]2CCN2C(=O)[C@H](C)N(C)C1=O` [Compound 575] ([NMeL]I[NMeA][Aze][NMeCha][Sar][hPhe(3-Cl-4-CF3)]A[Ac5c][NMeGly(cPent)][NMeD]-NMe2; lactam N-11), the IC50 in assay [1] was 100 to 500 nM; in assay [2] it was 0.56 nM.

For `CC[C@H](C)[C@@H]1NC(=O)[C@H](CC(C)C)N(C)C(=O)C[C@@H](C(=O)N2CCCCC2)N(C)C(=O)[C@H](CC(C)C)NC(=O)C(C)(C)N(C)C(=O)[C@H](Cc2ccccc2C)NC(=O)[C@H](Cc2cccc(I)c2)NC(=O)CN(C)C(=O)[C@H](Cc2ccc(C)cc2)N(C)C(=O)CN(C)C(=O)CN(C)C1=O` [Compound 596] ([NMeL]I[Sar][Sar][NMePhe(4-Me)][Sar][Phe(3-I)][Phe(2-Me)][NMeAib]L[NMeD]-Piperidide; lactam N-11), the results for the IC50 in assay [1] and in assay [2] were above 500 nM and 34 nM, respectively.

`CC[C@H](C)[C@@H]1NC(=O)[C@H](CC(C)C)N(C)C(=O)C[C@@H](C(=O)N2CCCCC2)N(C)C(=O)[C@H](C(C)C)N(C)C(=O)C2(CCCCC2)NC(=O)[C@@H]2CCCN2C(=O)[C@H](CCc2ccc(C(F)(F)F)c(Cl)c2)NC(=O)CN(C)C(=O)[C@H](CC2CCCCC2)N(C)C(=O)CN(C)C(=O)CN(C)C1=O` [Compound 600] ([NMeL]I[Sar][Sar][NMeCha][Sar][hPhe(3-Cl-4-CF3)]P[Ac6c][NMeV][NMeD]-Piperidide; lactam N-11): the IC50 in assay [1] is 100 to 500 nM; in assay [2], 4.5 nM.
